Source: patent US7531558B2, “Carboxamide derivatives” (Glaxo Group Limited, priority 2003, dated 2009)

test system: FCA-induced mechanical hyperalgesia; experiment: FCA-induced hyperalgesia in the guinea pig (paw pressure, Randall-Sellito); format: in vivo; settings: male Dunkin Hartley guinea-pigs; oral 3, 10, 30 mg/kg 24 h after intraplantar FCA; reading 1 hour after drug administration
Method: 100 μl of 1 mg/ml FCA was injected intraplantar into the left paw of 4 groups of 8 male Dunkin Hartley guinea-pigs (batch: 6282434, average weight 340 g). 24 hours later compounds were administered orally at 0 (vehicle), 3, 10 30 mg/kg with vehicle as 1% methylcellulose and dosing volume being 2 ml/kg and dosing straight into the stomach. The methylcellulose was added gradually to the compound into the pestle and mortar and ground together.
Behavioural readouts of mechanical hyperalgesia were obtained before FCA administration (naïve reading), after FCA but before drug administration (predose reading) and 1 hour after drug administration. The readout used was paw pressure (Randall-Sellito) and the end point was paw withdrawal. The paw pressure equipment also had one silver disc placed on the point to increase the markings by a factor of 2.

Compound | activity in FCA-induced mechanical hyperalgesia (paw withdrawal)
Cc1nc2cc(NC(=O)c3ccc(-c4ccc(F)c(F)c4)nc3C)ccc2s1 [Example 3, 6-(3,4-Difluorophenyl)-2-methyl-N-(2-methylbenzothiazol-5-yl)-nicotinamide] | active
Cc1nc2cc(NC(=O)c3ccc(-c4ccc(F)cc4)nc3C)ccc2s1 [Example 1, 6-(4-Fluorophenyl)-2-methyl-N-(2-methylbenzothiazol-5-yl)nicotinamide] | active
Cc1nc(-c2ccc(F)cc2)ccc1C(=O)Nc1ccc2scnc2c1 [Example 4, N-Benzothiazol-5-yl-6-(4-fluorophenyl)-2-methyl-nicotinamide] | active
Cc1nc2cc(NC(=O)c3ccc(-c4cccc(F)c4F)nc3C)ccc2s1 [Example 5, 6-(2,3-Difluorophenyl)-2-methyl-N-(2-methylbenzothiazol-5-yl)-nicotinamide] | active
Cc1nc2cc(NC(=O)N3CCN(c4ccccc4F)CC3)ccc2s1 [Example 16, 4-(2-Fluorophenyl)-N-(2-methylbenzothiazol-5-yl)-1-piperazine carboxamide] | active
Cc1nc2cc(NC(=O)c3ccc(-c4ccc(F)cc4F)nc3C)ccc2s1 [Example 2, 6-(2,4-Difluorophenyl)-2-methyl-N-(2-methylbenzothiazol-5-yl)-nicotinamide] | active
